In US20140051679A1, “KINASE INHIBITORS AND METHOD OF TREATING CANCER WITH SAME” (UNIVERISTY HEALTH NETWORKS, priority 2011, published 2014):

Assays:
human TTK = molecular target: T1, human TTK (Homo sapiens, UniProt P33981); experiment: TTK inhibition assay (indirect ELISA); type: biochemical; conditions: GST-TTK 0.68 nM, 16 μM ATP; read-out: IC50 Ranges TTK
T1 construct: amino terminal GST fusion of full length human TTK; purchased Invitrogen
T1 sequence (P33981 1-857): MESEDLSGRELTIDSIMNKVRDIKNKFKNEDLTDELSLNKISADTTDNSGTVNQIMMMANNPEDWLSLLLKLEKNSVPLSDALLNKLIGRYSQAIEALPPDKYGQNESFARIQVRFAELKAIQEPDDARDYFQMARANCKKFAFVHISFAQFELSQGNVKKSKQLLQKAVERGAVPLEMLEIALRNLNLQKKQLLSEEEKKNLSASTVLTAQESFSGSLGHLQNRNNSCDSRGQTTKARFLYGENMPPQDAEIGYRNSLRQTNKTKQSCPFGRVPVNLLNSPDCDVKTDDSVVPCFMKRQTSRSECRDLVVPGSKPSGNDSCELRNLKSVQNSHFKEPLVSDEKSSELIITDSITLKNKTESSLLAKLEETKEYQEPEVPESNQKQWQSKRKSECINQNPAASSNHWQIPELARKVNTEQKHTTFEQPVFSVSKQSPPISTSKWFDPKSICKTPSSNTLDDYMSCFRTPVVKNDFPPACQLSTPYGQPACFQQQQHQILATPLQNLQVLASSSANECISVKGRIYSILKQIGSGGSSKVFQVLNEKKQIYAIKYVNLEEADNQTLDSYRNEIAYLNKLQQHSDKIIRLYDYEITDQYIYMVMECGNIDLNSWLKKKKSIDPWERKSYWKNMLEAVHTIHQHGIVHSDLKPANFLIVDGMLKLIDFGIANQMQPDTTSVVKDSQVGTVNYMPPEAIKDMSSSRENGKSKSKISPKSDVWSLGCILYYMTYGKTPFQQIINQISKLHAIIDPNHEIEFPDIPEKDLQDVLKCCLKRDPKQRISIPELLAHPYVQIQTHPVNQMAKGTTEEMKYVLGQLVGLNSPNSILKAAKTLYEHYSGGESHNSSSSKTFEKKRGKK

human PLK4 = molecular target: T2, human PLK4 (Homo sapiens, UniProt O00444); experiment: PLK4 inhibition assay (indirect ELISA); type: biochemical; conditions: GST-PLK4 4 nM, 15 μM ATP; read-out: IC50 Ranges PLK4
T2 construct: amino terminal GST fusion of residues 1-391 of human PLK4; made in house; host or cells: E. coli
T2 sequence (O00444 1-391): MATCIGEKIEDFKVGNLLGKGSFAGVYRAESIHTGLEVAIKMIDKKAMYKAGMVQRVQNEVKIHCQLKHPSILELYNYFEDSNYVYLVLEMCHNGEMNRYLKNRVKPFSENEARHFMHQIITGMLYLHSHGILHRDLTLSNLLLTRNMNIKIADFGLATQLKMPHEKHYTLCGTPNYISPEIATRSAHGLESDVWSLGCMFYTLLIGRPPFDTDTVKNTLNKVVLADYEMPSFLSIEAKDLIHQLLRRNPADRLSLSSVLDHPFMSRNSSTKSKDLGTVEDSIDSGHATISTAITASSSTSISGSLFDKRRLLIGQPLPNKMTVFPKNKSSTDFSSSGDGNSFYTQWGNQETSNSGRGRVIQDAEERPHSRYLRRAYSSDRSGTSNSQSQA
Summary of the method: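 Compounds were tested either at a single 10 μM dose or across 10-point titrations (typically 0.5 to 0.001 μM), preincubated 15 min with 4 nM GST-PLK4 (human 1-391, dephosphorylated) before 15 μM ATP was added. MBP substrate phosphorylation over 30 min, pH 7.5 HEPES/MgCl2 buffer, read by HRP/TMB ELISA (450 nm). % inhibition vs. high-activity control; IC50 by logistic fit.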

Aurora B = molecular target: T3, Aurora B (Homo sapiens, UniProt Q96GD4); experiment: Aurora B inhibition assay (Z-Lyte); type: biochemical; conditions: 28 nM Aurora B, 128 μM ATP; read-out: IC50 Ranges Aurora B
T3 construct: purchased Invitrogen PV3970
T3 sequence (Q96GD4 whole entry): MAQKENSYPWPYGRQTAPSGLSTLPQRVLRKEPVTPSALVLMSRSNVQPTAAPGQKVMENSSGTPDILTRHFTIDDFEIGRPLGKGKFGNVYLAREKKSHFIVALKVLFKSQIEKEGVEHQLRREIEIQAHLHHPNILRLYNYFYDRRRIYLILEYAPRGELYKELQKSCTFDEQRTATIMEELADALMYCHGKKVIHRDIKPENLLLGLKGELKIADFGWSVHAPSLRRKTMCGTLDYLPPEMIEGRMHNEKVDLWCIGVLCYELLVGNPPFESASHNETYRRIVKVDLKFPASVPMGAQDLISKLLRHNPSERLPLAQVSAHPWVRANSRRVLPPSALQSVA
Procedure: Aurora B inhibition was determined using the Z-Lyte assay kit from Invitrogen. The assay was performed using the recommended manufacturer's instructions with 128 μM ATP and 28 nM Aurora B (Invitrogen cat #PV3970). The % inhibition values were determined according to the manufacturer's directions and IC50 values were obtained using a non-linear 4 point logistic curve fit (XLfit4, IDBS)

[1] = system: MDA-MB-231 breast cancer cells; experiment: Cell growth inhibition, Sulforhodamine B assay, MDA-MB-231; type: cell-based; conditions: Homo sapiens, 120 h, 5 days culture, SRB assay, read-out: Cell Line GI50 Range MDA-MB-231
[2] = system: MDA-MB-468 breast cancer cells; experiment: Cell growth inhibition, Sulforhodamine B assay, MDA-MB-468; type: cell-based; conditions: Homo sapiens, 120 h, 5 days culture, SRB assay, read-out: Cell Line GI50 Range MDA-MB-468
[3] = system: HCT116 colon cancer cells; experiment: Cell growth inhibition, Sulforhodamine B assay, HCT116; type: cell-based; conditions: Homo sapiens, HCT-116, 120 h, 5 days culture, SRB assay, read-out: Cell Line GI50 Range HCT116
HT29 colon cancer cells = experiment: Cell growth inhibition, Sulforhodamine B assay, HT29; type: cell-based; conditions: Homo sapiens, HT-29, 120 h, 5 days culture, SRB assay, read-out: Cell Line GI50 Range HT29
[4] = system: PA-1 ovarian cancer cells; experiment: Cell growth inhibition, Sulforhodamine B assay, PA-1; type: cell-based; conditions: 120 h, 5 days culture, SRB assay, read-out: Cell Line GI50 Range PA-1
[5] = system: OVCAR-3 ovarian cancer cells; experiment: Cell growth inhibition, Sulforhodamine B assay, OVCAR-3; type: cell-based; conditions: Homo sapiens, 120 h, 5 days culture, SRB assay, read-out: Cell Line GI50 Range OVCAR-3

| IC50 (human TTK) [µM] | IC50 (human PLK4) [µM] | IC50 (Aurora B) [µM] | GI50 [1] [µM] | GI50 [2] [µM] | GI50 [3] [µM] | GI50 (HT29 colon cancer cells) [µM] | GI50 [4] [µM] | GI50 [5] [µM] | Compound |
| --- | --- | --- | --- | --- | --- | --- | --- | --- | --- |
| ≤ 5 | ≤ 5 | ≤ 5 | ≤ 5 | ≤ 5 | ≤ 5 | ≤ 5 | ≤ 5 | ≤ 5 | Cc1ccccc1C(NC(=O)c1ccc2[nH]nc(-c3ccc(OC4CCN(C)CC4)cc3)c2c1)C(C)C (centres unmarked) [Example A143, N-(2-methyl-1-(o-tolyl)propyl)-3-(4-((1-methylpiperidin-4-yl)oxy)phenyl)-1H-indazole-5-carboxamide] |
| ≤ 5 | ≤ 5 | ≤ 5 | ≤ 5 | ≤ 5 | ≤ 5 | ≤ 5 | ≤ 5 | ≤ 5 | CN1CCOC(c2ccc(-c3n[nH]c4ccc(C(=O)NC(c5ccccc5)C5CC5)cc34)cc2)C1 (centres unmarked) [Example A139, N-(cyclopropyl(phenyl)methyl)-3-(4-(4-methylmorpholin-2-yl)phenyl)-1H-indazole-5-carboxamide] |
| ≤ 5 | ≤ 5 | ≤ 5 | ≤ 5 | ≤ 5 | ≤ 5 | ≤ 5 | ≤ 5 | ≤ 5 | O=C(NC(c1ccccc1)C1CC1)c1ccc2[nH]nc(-c3ccc(OC4CCN(CCO)CC4)cc3)c2c1 (centres unmarked) [Example A104, N-(cyclopropyl(phenyl)methyl)-3-(4-((1-(2-hydroxyethyl)piperidin-4-yl)oxy)phenyl)-1H-indazole-5-carboxamide] |
| ≤ 5 | ≤ 5 | – | ≤ 5 | ≤ 5 | ≤ 5 | ≤ 5 | ≤ 5 | ≤ 5 | CO[C@@H](C(=O)Nc1ccc2[nH]nc(-c3ccc(O[C@@H]4CCN(C)C[C@@H]4F)cc3)c2c1)c1ccccc1 (relative stereo) [Example A135, (R)—N-(3-(4-(((3S,4R)-3-fluoro-1-methylpiperidin-4-yl)oxy)phenyl)-1H-indazol-5-yl)-2-methoxy-2-phenylacetamide] |
| ≤ 5 | ≤ 5 | – | ≤ 5 | ≤ 5 | ≤ 5 | ≤ 5 | ≤ 5 | ≤ 5 | CO[C@@H](C(=O)Nc1ccc2[nH]nc(-c3ccc(OCC4CCN(C)CC4)cc3)c2c1)c1ccccc1 [Example A145, (R)-2-methoxy-N-(3-(4-((1-methylpiperidin-4-yl)methoxy)phenyl)-1H-indazol-5-yl)-2-phenylacetamide] |
| ≤ 5 | ≤ 5 | – | ≤ 5 | ≤ 5 | ≤ 5 | ≤ 5 | ≤ 5 | ≤ 5 | COCCN1CCC(Oc2ccc(-c3n[nH]c4ccc(C(=O)N[C@H](COC)c5ccccc5)cc34)cc2)CC1 [Example A164, (S)—N-(2-methoxy-1-phenylethyl)-3-(4-((1-(2-methoxyethyl)piperidin-4-yl)oxy)phenyl)-1H-indazole-5-carboxamide] |
| ≤ 5 | ≤ 5 | – | ≤ 5 | ≤ 5 | ≤ 5 | ≤ 5 | ≤ 5 | 5 to 20 | CCc1cccc(CC)c1NC(=O)Nc1ccc2[nH]nc(-c3ccc4c(c3)CN(C)CCO4)c2c1 [Example A114, 1-(2,6-diethylphenyl)-3-(3-(4-methyl-2,3,4,5-tetrahydrobenzo[f][1,4]oxazepin-7-yl)-1H-indazol-5-yl)urea] |
| ≤ 5 | ≤ 5 | – | ≤ 5 | ≤ 5 | ≤ 5 | ≤ 5 | ≤ 5 | 5 to 20 | COCCN1CCC(Oc2ccc(-c3n[nH]c4ccc(C(=O)N[C@H](C)c5ccccc5F)cc34)cc2)CC1 [Example A129, (R)—N-(1-(2-fluorophenyl)ethyl)-3-(4-((1-(2-methoxyethyl)piperidin-4-yl)oxy)phenyl)-1H-indazole-5-carboxamide] |
| ≤ 5 | ≤ 5 | – | ≤ 5 | ≤ 5 | ≤ 5 | ≤ 5 | ≤ 5 | ≤ 5 | CN1CCC(Oc2ccc(-c3n[nH]c4ccc(NC(=O)C5OCCc6ccccc65)cc34)cc2)CC1 (centres unmarked) [Example A146, N-(3-(4-(1-Methylpiperidin-4-yloxy)phenyl)-1H-indazol-5-yl)isochroman-1-carboxamide] |
| ≤ 5 | ≤ 5 | – | ≤ 5 | ≤ 5 | ≤ 5 | ≤ 5 | ≤ 5 | ≤ 5 | COc1ccccc1C(C(=O)Nc1ccc2[nH]nc(-c3ccc(OC4CCN(C)CC4)cc3)c2c1)C1CCCC1 (centres unmarked) [Example A156, 2-cyclopentyl-2-(2-methoxyphenyl)-N-(3-(4-((1-methylpiperidin-4-yl)oxy)phenyl)-1H-indazol-5-yl)acetamide] |
| ≤ 5 | ≤ 5 | – | ≤ 5 | ≤ 5 | ≤ 5 | ≤ 5 | ≤ 5 | ≤ 5 | O=C(NC(c1ccccc1)C1CC1)c1ccc2[nH]nc(-c3ccc(OCCN4CCOCC4)cc3)c2c1 (centres unmarked) [Example A140, N-(cyclopropyl(phenyl)methyl)-3-(4-(2-morpholinoethoxy)phenyl)-1H-indazole-5-carboxamide] |
| ≤ 5 | ≤ 5 | – | ≤ 5 | ≤ 5 | ≤ 5 | ≤ 5 | ≤ 5 | ≤ 5 | CC(C)(C)OC(=O)N1CCC(Oc2ccc(-c3n[nH]c4ccc(NC(=O)C(c5ccsc5)N5CCCC5)cc34)cc2)CC1 (centres unmarked) [Example A115, tert-butyl 4-(4-(5-(2-(pyrrolidin-1-yl)-2-(thiophen-3-yl)acetamido)-1H-indazol-3-yl)phenoxy)piperidine-1-carboxylate] |
| ≤ 5 | ≤ 5 | – | ≤ 5 | ≤ 5 | ≤ 5 | ≤ 5 | ≤ 5 | ≤ 5 | Cc1ccccc1C(NC(=O)c1ccc2[nH]nc(-c3ccc(N4CC(O)C4)cc3)c2c1)C1CC1 (centres unmarked) [Example A141, N-(Cyclopropyl(o-tolyl)methyl)-3-(4-(3-hydroxyazetidin-1-yl)phenyl)-1H-indazole-5-carboxamide] |
